Columns and labels:
[1] = system: Arabidopsis LysM RLK genes; assay: DNA microarray (Affymetrix 24K chip) of plants sprayed with chitin; format: in vivo, Arabidopsis thaliana; settings: leaves sprayed with chitin (100 μM)+0.2% Tween-20
Procedure: A total of five LysM receptor-like kinase genes were identified in Arabidopsis from the studies described in Example 1. The Genbank numbers of these five genes are AtLYK1 (GenBank accession #At3g21630), AtLYK2 (GenBank accession # At3g01840), AtLYK3 (GenBank accession #At1g51940), AtLYK4 (GenBank accession # At2g23770), AtLYK5 (GenBank accession #At2g33580), and, which are designated as SEQ ID. Nos. 3-7, respectively. A DNA microarray experiment was performed by treating Arabidopsis plants with chitin. Leaves were treated by spraying with chitin (100 μM)+0.2% Tween-20. The Affymetrix 24K Arabidopsis genome chip was utilized according to the manufacturer's instructions for this test. […] The data implicate these genes in plant chitin response.

soybean LysM RLK genes = assay: Expression analysis of GmLysM receptor-like kinases in chitin-treated leaves; format: in vivo; settings: leaves sprayed with chitin (100 μM)+0.2% Tween-20
Procedure: Soybean genotypes used for mapping of soybean QTLs for white mold resistance included Corsoy 79 and Dassel. […] Finally, as was the case with Arabidopsis, some of the soybean LysM RLK genes are induced upon treatment of soybean with chitin, as confirmed by the results shown in FIG. 20. Leaves were treated by spraying with chitin (100 μM)+0.2% Tween-20.

transcription factors = assay: qRT-PCR of transcription factors after chitin treatment; parameters: species or system Arabidopsis thaliana; settings: in vivo
Procedure: Based on the genome-wide gene expression studies using microarrays, quantitative reverse transcriptase-polymerase chain reaction (qRT-PCR) was conducted to identify over 120 different transcription factors in Arabidopsis thaliana whose expression is enhanced by chitin treatment. Many of these transcription factors are known to be involved in fungal pathogen response. […] Each of these transcription factors is a potential target for genetic manipulation in order to enhance disease resistance. The results of this study are described in greater details in Libault et al., 2007, which is hereby expressly incorporated by reference.

[2] = system: wild-type Col-0 gene expression (chitooligosaccharide-responsive genes, CRGs); assay: Affymetrix ATH1 whole genome array, response to chitooctaose in wild-type plants; format: in vivo, Arabidopsis thaliana
Procedure: (§1) More particularly, Arabidopsis seedlings were grown hydroponically as described by Ramonell et al., 2005. Fourteen-day old seedlings were treated with chitooctaose (Sigma, St. Louis, Mo., USA) at a concentration of 1 μM or with distilled water (as a control) for 30 minutes. To test flagellin-responsive genes, 14-day old seedlings were also treated with the flagellinderived flg22 peptide (dissolved in dimethyl sulfoxide, DMSO) at a final concentration of 10 μM or with an equivalent amount of DMSO (as a control) for 30 minutes. To test other defense pathways, Arabidopsis seedlings were also treated for 24 hours with 5 mM SA, 100 μM MeJA, and 0.5 mM ACC (all obtained from Sigma, St. Louis, Mo., USA) and dissolved in 0.1% ethanol. The control plants were similarly treated with an equivalent amount of ethanol. After treatment, the seedlings were collected and frozen in liquid nitrogen for RNA isolation.
(§2) Total RNA was isolated using the Trizol Reagent according to the manufacturer's instructions (Invitrogen, Carlsbad, Calif.). The isolated RNA was further purified using Qiagen RNeasy Mini Columns according to the manufacturer's instruction (Qiagen, Valencia, Calif., USA) and treated with Turbo™ DNase (Ambion, Austin, Tex., USA). For semi-quantitative RT-PCR or quantitative 17 PCR, cDNA was synthesized using M-MLV reverse transcriptase according to the manufacturer's instructions (Promega, Madison, Wis., USA).
(§3) Gene expression profiles in the AtLysM RLK1 mutant in response to chitooctaose were studied using the Affymetrix Arabidopsis Whole Genome Array ATH1 (with ˜22000 genes), with wild-type plants as a control. […] A row represents a gene and each column represents a sample. WT-8mer=wild-type Col-0 treated with chitooctaose; WT-water=wild-type Col-0 treated with distilled water; Mu-water=the AtLysM RLK1 mutant treated with distilled water; Mu-8mer=the AtLysM RLK1 mutant treated with chitooctaose. The color bar below the cluster picture: the red color indicates the expression level of a gene is above the mean expression of the gene across all samples; the green color indicates expression lower than the mean.

[3] = system: AtLysM RLK1 mutant gene expression (chitooligosaccharide-responsive genes, CRGs); assay: Affymetrix ATH1 whole genome array, response to chitooctaose in the AtLysM RLK1 mutant; format: in vivo, Arabidopsis thaliana
Procedure: as §1, §2
The AtLysM RLK1 insertion mutant (096F09) used in the current work was generated in the context of the GABI-Kat program and provided by Bernd Weisshaar (MPI for Plant Breeding Research, Cologne, Germany). See Shibuya et al., 2001. The homozygous plants were identified by genotyping using the following gene-specific primers: […]
as §3

[4] = system: selected CRGs (MPK3, WRKY22, WRKY29, WRKY33, WRKY53); assay: Semi-quantitative RT-PCR of selected CRGs after chitooctaose; format: in vivo, Arabidopsis thaliana; settings: chitooctaose or water for 30 minutes; mutant vs wild type
Procedure: To test whether non-leguminous LysM RLKs may be involved in the perception of chitooligosaccharides and the subsequent induction of downstream genes that have been implicated in fungal defense, T-DNA insertion mutants were obtained for all five LysM RLK genes (i.e., At1g51940, At2g23770, At2g33580, At3g01840, and At3g21630) in Arabidopsis. The gene At3g21630 (SEQ ID. No. 3) is also termed AtLYK1 or AtLysM RLK1. Homozygous mutants were then treated with a purified chitooligosaccharide (chitooctaose) and the expression levels of known CRGs, such as MPK3 (At3g45640, SEQ ID. No. 8), WRKY22 (At4g01250, SEQ ID. No. 9), WRKY29 (At4g23550, SEQ ID. No. 10), WRKY33 (At2g38470, SEQ ID. No. 11), and WRKY53 (At4g23810, SEQ ID. No. 12), were measured.
More particularly, Arabidopsis seedlings were grown hydroponically as described by Ramonell et al., 2005. […]
Total RNA was isolated using the Trizol Reagent according to the manufacturer's instructions (Invitrogen, Carlsbad, Calif.). […] For semi-quantitative RT-PCR or quantitative 17 PCR, cDNA was synthesized using M-MLV reverse transcriptase according to the manufacturer's instructions (Promega, Madison, Wis., USA). […]
Both the mutant (Mu) and wildtype (WT) plants were treated with purified chitooctaose or water (as a control) for 30 minutes and gene expression of the selected CRGs was detected using semi-quantitative RT-PCR. […]

[5] = system: selected CRGs (LjMPK3, LjWRKY22, LjWRKY33, LjWRKY53); assay: Semi-quantitative RT-PCR of selected CRGs in Lotus japonicus Nod signal receptor mutants; format: in vivo; settings: chitooctaose 1 μM, 30 minutes; wild type Gifu as comparison
Procedure: PCR reactions were conducted using Taq polymerase (Promega, Madison, Wis., USA) under the following conditions: 94° C., 3 minutes; 94° C., 30 seconds; 55° C., 30 seconds; 72° C., 1.5 minutes; 25 cycles; 72° C., 3 minutes. The corresponding CRG genes in Lotus japonicus were identified by blasting the cDNA sequences of the above Arabidopsis CRGs (and also actin-2) against the TIGR Lotus japonicus Gene Index. The closest hits were chosen and arbitrarily named after their Arabidopsis counterparts with the prefix Lj (standing for Lotus japonicus). The following primer pairs were designed to detect these genes:
LjActin-2 was used as an internal control.
LysM RLK NFR1 and NFR5 Nod signal receptors specifically recognize a lipochitin molecule with a back-bone of 4-5 units of N-acetyl-D-glucosamine. For review, see Stacey et al. 2006. […] In more details, both the wild type (Gifu) and the Nod signal receptor mutants nfr1-1 and nfr5-1 were treated with chitooctaose for 30 minutes at a concentration of 1 μM or with water (as a control). The selected CRGS were detected using semi-quantitative RT-PCR. LjActin-2 was used as an internal control.

AtLysM RLK1 gene = assay: RT-PCR of AtLysM RLK1 gene expression after elicitor treatment; format: in vivo, Arabidopsis thaliana; settings: seedlings, chitooctaose 1 μM, 30 minutes
Procedure: as §1
These two primers were also used to detect the expression of the AtLysM RLK1 gene via RT-PCR. The other primers used to detect the transcript 5′ of the insertion site were as follows:
The expression pattern of the AtLysM RLK1 gene was also studied. […]

Alternaria brassicicola = assay: Pretreatment before inoculation with Alternaria brassicicola (lesion size, spore production); format: in vivo, Arabidopsis thaliana
Source text: The susceptibility appeared to be less than that observed in NahG plants, which express salicylate hydrolase, preventing the accumulation of salicylic acid, and are therefore very susceptible to the fungal pathogen (FIG. 13A). […] Arrows indicate sites where conidiophores are forming. All photographs were taken six days after inoculation. Bar=0.1 mm. 4-week-old plants were also inoculated with the necrotrophic fungus Alternaria brassicicola. Three days after inoculation, the mutant developed slightly bigger lesions than the wild-type plants, as measured by average diameter of the lesions (FIGS. 13C and 13D). In agreement with this, the mutant plants also produced more spores per lesion than the wild-type plants (FIG. 13E).
(§4) To test the specificity of AtLysM RLK1 in fungal disease resistance, the response of the mutant to the bacterial pathogen Pseudomonas syringae pv. Tomato DC3000 was also examined. […] WT=wild-type Col-0; Mu=the AtLysM RLK1 mutant. CSC=crab shell chitin, 8mer=chitooctaose, and water=distilled water. Empty columns=WT Col-0 and solid black columns=the AtLysM RLK1 mutant. Asterisks indicate statistically significant differences between the mutant and wild-type plants (P<0.05). Error bars=standard error. Each experiment was repeated at least twice with similar results.

[6] = system: Pseudomonas syringae pv. tomato DC3000; assay: Pretreatment before inoculation with Pseudomonas syringae pv. tomato DC3000 (bacterial growth); format: in vivo, Arabidopsis thaliana
Source text: as §4

[7] = pretreatment of AtLysM RLK1 mutant plants
[8] = pretreatment of wild-type plants

chitin
increase in transcription of At2g23770 [1]: 2 fold
increase in transcription of At2g33580 [1]: 13 fold
increase in transcription of At3g21630 [1]: 2 fold
induction of soybean LysM RLK genes (soybean LysM RLK genes): induced
number of transcription factors whose expression is enhanced by chitin treatment (transcription factors): over 120 transcription factors

CC(=O)N[C@H]1[C@H](O[C@H]2[C@H](O)[C@@H](NC(C)=O)[C@H](O[C@H]3[C@H](O)[C@@H](NC(C)=O)[C@H](O[C@H]4[C@H](O)[C@@H](NC(C)=O)C(O)O[C@@H]4CO)O[C@@H]3CO)O[C@@H]2CO)O[C@H](CO)[C@@H](O[C@@H]2O[C@H](CO)[C@@H](O[C@@H]3O[C@H](CO)[C@@H](O[C@@H]4O[C@H](CO)[C@@H](O[C@@H]5O[C@H](CO)[C@@H](O)[C@H](O)[C@H]5NC(C)=O)[C@H](O)[C@H]4NC(C)=O)[C@H](O)[C@H]3NC(C)=O)[C@H](O)[C@H]2NC(C)=O)[C@@H]1O (some centres unmarked) [chitooctaose]
number of down-regulated genes in wild-type plants ([2]; 1.5 fold, P<0.05): 227 genes
number of up-regulated genes in wild-type plants ([2]; 1.5 fold, P<0.05): 663 genes
number of genes that responded more than 1.5 fold (P<0.05) to chitooctaose elicitation ([2]; in both the wild-type and mutant plants, 30 minutes after the treatment): 909 genes
number of genes with a change in transcript levels in wild-type plants ([2]; out of the 909 genes, 1.5 fold, P<0.05): 890 genes
number of down-regulated genes in the mutant ([3]; AtLysM RLK1 mutant): 17 genes
number of up-regulated genes in the mutant ([3]; AtLysM RLK1 mutant): 16 genes
number of genes responsive in the mutant ([3]; out of 909, AtLysM RLK1 mutant): 33 genes
induction of the selected CRGs in the AtLysM RLK1 insertion mutant [4]: almost completely blocked the induction
induction of the selected CRGs in L. japonicus nfr1-1 and nfr5-1 mutants [5]: did not block the induction

chitooligosaccharides
share of CRGs whose regulation is blocked by the AtLysM RLK1 mutation ([3]; AtLysM RLK1 mutant vs wild type): ~98%
induction of the AtLysM RLK1 gene (AtLysM RLK1 gene): induced
resistance after pretreatment, A. brassicicola (Alternaria brassicicola; [7]): did not enhance resistance
disease symptoms (lesion size and spore production) after A. brassicicola inoculation (Alternaria brassicicola; [8]): reduced disease symptoms
resistance after pretreatment, P. syringae pv. tomato DC3000 [6, 7]: did not enhance resistance
growth of the bacterial pathogen P. syringae pv. tomato DC3000 [6, 8]: inhibited the growth
